Literature values, collected in PubChem BioAssay AID1259410 (Chemical Carcinogenesis Research Information System (CCRIS), 2018).

System: rodent tumor promotion studies, tumor incidence
Assay: CCRIS tumor promotion studies

O=C(O)C(Cl)Cl
outcome (Carcinogen: N-METHYL-N-NITROSOUREA, 684-93-5, Doses [Carcinogen]: 25 MG/KG IN STERILE SALINE ONCE, Doses [Promoter]: 0, 25 MMOL/L IN DRINKING WATER FOR 44 WK BEGINNING 2 WK POST CARCINOGEN DOSE (STUDY DURATION: 46 WK), Route [Carcinogen]: INTRAPERITONEAL, Route [Promoter]: ORAL, Species: MOUSE, Strain/Sex: B6C3F1/FEMALE): liver: adenoma | outcome (Carcinogen: N-METHYL-N-NITROSOUREA, 684-93-5, Doses [Carcinogen]: 25 MG/KG ONCE AT 15 D OF AGE, Doses [Promoter]: 0, 20 NMOL/L IN DRINKING WATER FOR 31 WK BEGINNING AT 7 WK OF AGE (STUDY DURATION: 31 WK), Route [Carcinogen]: INTRAPERITONEAL, Route [Promoter]: ORAL, Species: MOUSE, Strain/Sex: B6C3F1/FEMALE): liver: adenoma | outcome (Carcinogen: N-METHYL-N-NITROSOUREA, 684-93-5, Doses [Carcinogen]: 25 MG/KG ONCE AT 15 D OF AGE, Doses [Promoter]: 0, 20 NMOL/L IN DRINKING WATER FOR 52 WK BEGINNING AT 7 WK OF AGE (STUDY DURATION: 52 WK), Route [Carcinogen]: INTRAPERITONEAL, Route [Promoter]: ORAL, Species: MOUSE, Strain/Sex: B6C3F1/FEMALE): liver: adenoma

C=CCS(=O)(=O)CC=C
outcome (Carcinogen: Vinyl carbamate, 15805-73-9, Doses [Carcinogen]: 60 mg/kg once 2 hr after inhibitor (Study duration: 25 wk), Doses [Promoter]: 50 mg/kg once at beginning of experiment (Study duration: 25 wk), Route [Carcinogen]: Intraperitoneal, Route [Promoter]: Oral, Species: Mouse, Strain/Sex: F1 (Big Blue x A/J) (43/?)/47/?)): lung: solid tumors (61 (42%), 135 (86.5%), p<0.01)

CCC1(c2ccccc2)C(=O)N=C(O)NC1=O (stereo unspecified)
outcome (Carcinogen: 2-(ACETYLAMINO)FLUORINE, Doses [Carcinogen]: 0.02% IN DIET FOR 4 WK, Doses [Promoter]: 0.05% IN DIET FOR 32 WK, Route [Carcinogen]: ORAL, Route [Promoter]: ORAL, Species: RAT, Strain/Sex: F344/MALE): liver: hepatocellular carcinoma | outcome (Carcinogen: DIETHYLNITROSAMINE, 55-18-5, 2-ACETYLAMINOFLUORENE, 6292-55-3, CARBON TETRACHLORIDE, 56-23-5, Carcinogen: DIETHYLNITROSAMINE, 55-18-5, 2-ACETYLAMINOFLUORENE, 6292-55-3, CARBON TETRACHLORIDE, 56-23-5, Doses [Carcinogen]: 200 MG/KG ONCE FOLLOWED 2 WK LATER BY 0.03% 2-ACETYLAMINOFLUORENE IN DIET FOR 2 WK PLUS 2 ML/KG CARBON TETRACHLORIDE IN, Doses [Promoter]: 0.05% IN DIET STARTING 1 WK POST 2-ACETYLAMINOFLUORENE AND CONTINUED FOR 6 MO (STUDY DURATION: 7 MO), Route [Carcinogen]: INTRAPERITONEAL, ORAL, INTRAGASTRIC, Route [Carcinogen]: INTRAPERITONEAL, ORAL, INTRAGASTRIC, Route [Promoter]: ORAL, Species: RAT, Strain/Sex: WISTAR/MALE): liver: hepatocellular carcinoma | outcome (Carcinogen: DIETHYLNITROSAMINE, 55-18-5, Doses [Carcinogen]: 2.5, 10, 25, 50 UG/G IN SALINE ONCE ON DAY 15 OF AGE, Doses [Promoter]: 0, 500 PPM IN DRINKING WATER FROM 28 DAYS OF AGE TO 12, 24, 40 WK POST-WEANING (STUDY DURATION: 42 WK), Route [Carcinogen]: INTRAPERITONEAL, Route [Promoter]: ORAL, Species: MOUSE, Strain/Sex: BALB/MALE): liver: adenoma | outcome (Carcinogen: DIETHYLNITROSAMINE, 55-18-5, N-METHYLNITROSOUREA, 684-93-5, DIHYDROXY-DI-N- PROPYLNITROSAMINE, 53604-64-6, Carcinogen: DIETHYLNITROSAMINE, 55-18-5, N-METHYLNITROSOUREA, 684-93-5, DIHYDROXY-DI-N- PROPYLNITROSAMINE, 53604-64-6, Doses [Carcinogen]: 100 MG/KG IN SALINE AT BEGINNING OF STUDY, 20 MG/KG IN CITRATE BUFFERED SOLUTION ON D 2, 5, 8 AND 11, 0.1% IN DRINKING, Doses [Carcinogen]: 100 MG/KG IN SALINE AT BEGINNING OF STUDY, 20 MG/KG IN CITRATE BUFFERED SOLUTION ON D 2, 5, 8 AND 11, 0.1% IN DRINKING, Doses [Promoter]: 0, 500 PPM IN DIET BEGINNING POST SEQUENTIAL CARCINOGEN TREATMENT AND CONTINUING FOR DURATION OF STUDY (STUDY DURATION:, Route [Carcinogen]: IP, IP, ORAL, Route [Carcinogen]: IP, IP, ORAL, Route [Promoter]: ORAL, Species: RAT, Strain/Sex: F344/MALE): thyroid: adenoma | outcome (Carcinogen: DIETHYLNITROSAMINE, 55-18-5, N-METHYLNITROSOUREA, 684-93-5, DIHYDROXY-DI-N- PROPYLNITROSAMINE, 53609-64-6, Carcinogen: DIETHYLNITROSAMINE, 55-18-5, N-METHYLNITROSOUREA, 684-93-5, DIHYDROXY-DI-N- PROPYLNITROSAMINE, 53609-64-6, Doses [Carcinogen]: 100 MG/KG IN SALINE AT BEGINNING OF STUDY, 20 MG/KG IN CITRATE BUFFERED SOLUTION ON D 2, 5, 8 AND 11, 0.1% IN DRINKING, Doses [Carcinogen]: 100 MG/KG IN SALINE AT BEGINNING OF STUDY, 20 MG/KG IN CITRATE BUFFERED SOLUTION ON D 2, 5, 8 AND 11, 0.1% IN DRINKING, Doses [Promoter]: 0, 500 PPM IN DIET BEGINNING POST SEQUENTIAL CARCINOGEN TREATMENT AND CONTINUING FOR DURATION OF STUDY (STUDY DURATION:, Route [Carcinogen]: IP, IP, ORAL, Route [Carcinogen]: IP, IP, ORAL, Route [Promoter]: ORAL, Species: RAT, Strain/Sex: F344/MALE): thyroid: adenoma | outcome (Carcinogen: ETHYLNITROSOUREA, 759-73-9, Doses [Carcinogen]: 5 MG/KG ONCE AT 15 D OF AGE, Doses [Promoter]: 0, 500 PPM IN DRINKING WATER BEGINNING AT 5 WK OF AGE AND CONTINUING TO 51 WK OF AGE (STUDY DURATION: 52 WK), Route [Carcinogen]: INTRAPERITONEAL, Route [Promoter]: ORAL, Species: MOUSE, Strain/Sex: CD-1/FEMALE): liver: adenoma | outcome (Carcinogen: ETHYLNITROSOUREA, 759-73-9, Doses [Carcinogen]: 5 MG/KG ONCE AT 15 D OF AGE, Doses [Promoter]: 0, 500 PPM IN DRINKING WATER BEGINNING AT 5 WK OF AGE AND CONTINUING TO 51 WK OF AGE (STUDY DURATION: 52 WK), Route [Carcinogen]: INTRAPERITONEAL, Route [Promoter]: ORAL, Species: MOUSE, Strain/Sex: CD-1/MALE): liver: carcinoma | outcome (Carcinogen: ETHYLNITROSOUREA, 759-73-9, Doses [Carcinogen]: 20 MG/KG ONCE AT 15 D OF AGE, Doses [Promoter]: 0, 500 PPM IN DRINKING WATER BEGINNING AT 5 WK OF AGE AND CONTINUING TO 51 WK OF AGE (STUDY DURATION: 52 WK), Route [Carcinogen]: INTRAPERITONEAL, Route [Promoter]: ORAL, Species: MOUSE, Strain/Sex: CD-1/FEMALE): liver: adenoma, carcinoma | outcome (Carcinogen: ETHYLNITROSOUREA, 759-73-9, Doses [Carcinogen]: 20 MG/KG ONCE AT 15 D OF AGE, Doses [Promoter]: 0, 500 PPM IN DRINKING WATER BEGINNING AT 5 WK OF AGE AND CONTINUING TO 51 WK OF AGE (STUDY DURATION: 52 WK), Route [Carcinogen]: INTRAPERITONEAL, Route [Promoter]: ORAL, Species: MOUSE, Strain/Sex: CD-1/MALE): liver: carcinoma | outcome (Carcinogen: N-BIS(2-HYDROXYPROPYL)NITROSAMINE, 53609-64-6, Doses [Carcinogen]: 280 MG/100 G/BW ONCE, Doses [Promoter]: 0, 0.05% IN DRINKING WATER FOR 25 WK (STUDY DURATION: 26 WK), Route [Carcinogen]: SUBCUTANEOUS, Route [Promoter]: ORAL, Species: RAT, Strain/Sex: F344/MALE): thyroid: neoplasm | outcome (Carcinogen: N-METHYL-N-NITROSOUREA, 684-93-5, Doses [Carcinogen]: 30 MG/KG BW ONCE, Doses [Promoter]: 0, 0.5% IN DRINKING WATER FOR DURATION OF STUDY BEGINNING POST CARCINOGEN DOSE(STUDY DURATION: 14 MO), Route [Carcinogen]: INTRAVENOUS, Route [Promoter]: ORAL, Species: RAT, Strain/Sex: LOBUND-WISTAR/MALE): lung: carcinoma, prostate/seminal vesicles: tumor

O=C1C=CC(=O)c2ccccc21
outcome (Carcinogen: 7,12-DIMETHYLBENZ[A]ANTHRACENE, 57-97-6, Doses [Carcinogen]: 25 NMOL IN 0.2 ML ACETONE ONCE, Doses [Promoter]: 440, 880, 1760 NMOL/MOUSE 1/WK FOR 30 WK BEGINNING 2 WK POST CARCINOGEN DOSE (STUDY DURATION: 32 WK), Doses [Promoter]: 440, 880, 1760 NMOL/MOUSE 1/WK FOR 30 WK BEGINNING 2 WK POST CARCINOGEN DOSE (STUDY DURATION: 32 WK), Route [Carcinogen]: DERMAL, Route [Promoter]: DERMAL, Species: MOUSE, Strain/Sex: SENCAR/FEMALE): skin: papilloma
